≈ marks a conversion by molar mass, not a printed value. Like-named read-outs stand apart in the source and are kept apart here.
Key:
[1] = tested on: Clostridium difficile (CD) strains; assay: microbe, parasite or virus in culture; assay type: cell-based
[2] = tested on: Staphylococcus aureus strains; assay: MIC by microdilution in Mueller-Hinton broth against Staphylococcus aureus strains; assay type: cell-based; conditions: Staphylococcus aureus
[3] = tested on: Fusobacterium; assay: MIC by microdilution in Brucella broth against Fusobacterium; assay type: cell-based, Fusobacterium spp.
[4] = tested on: Bifidobacterium strains; assay: MIC by microdilution in BHI broth against Bifidobacterium strains; assay type: cell-based, Bifidobacterium spp.; conditions: Bifidobacterium
[5] = tested on: C. difficile VPI10463; conditions: Clostridioides difficile, C. difficile VPI10463
[6] = tested on: C. difficile; assay: Minimum bactericidal concentration (MBC) against C. difficile; assay type: cell-based, Clostridium difficile
[7] = tested on: Lachnospiraceae and related bacterial strains; assay: MIC against Lachnospiraceae and related bacterial strains; assay type: cell-based, Lachnospiraceae spp.
[8] = tested on: Lactobacillus strains; assay: MIC against Lactobacillus strains; assay type: cell-based, Lactobacillus spp.
[9] = tested on: Escherichia coli strains; assay: MIC by microdilution in Mueller-Hinton broth against Escherichia coli strains; assay type: cell-based
[10] = tested on: CD strains; assay: In vitro activity of CFM + additional antimicrobial agent against CD (MIC alone/combination, FIC, ΣFIC); assay type: cell-based, Clostridium difficile; conditions: CFM + VAN; for MIC: Clostridioides difficile
[11] = tested on: C. perfringens MH310; assay: microbe, parasite or virus in culture; assay type: cell-based
[12] = Clostridioides difficile, BAA1805
[13] = Test 13, CD strain BAA1805 (BI/NAP1/027)
[14] = Test 16, CD strain BAA1805 (BI/NAP1/027)

## CN[C@H](CC(C)C)C(=O)N[C@H]1C(=O)N[C@@H](CC(N)=O)C(=O)N[C@H]2C(=O)N[C@H]3C(=O)N[C@H](C(=O)N[C@H](C(=O)O)c4cc(O)cc(O)c4-c4cc3ccc4O)[C@H](O)c3ccc(c(Cl)c3)Oc3cc2cc(c3O[C@@H]2O[C@H](CO)[C@@H](O)[C@H](O)[C@H]2O[C@H]2C[C@](C)(N)[C@H](O)[C@H](C)O2)Oc2ccc(cc2Cl)[C@H]1O [VAN, vancomycin]
[1]
  MIC Range: 0.25 to 2.0 µg/mL
[1]; Clostridioides difficile
  MIC50: 0.5 µg/mL (≈ 0.345 µM)
  MIC90: 2 µg/mL (≈ 1.38 µM)
[1]; [12]
  MIC: 1 µg/mL (≈ 0.69 µM)
[2]; S. aureus NR 10129
  MIC: 1 µg/mL (≈ 0.69 µM)
[2]; S. aureus NR 10186
  MIC: 1 µg/mL (≈ 0.69 µM)
[2]; S. aureus NR 10187
  MIC: 2 µg/mL (≈ 1.38 µM)
[2]; S. aureus NR 10188
  MIC: 1 µg/mL (≈ 0.69 µM)
[2]; S. aureus NR 10189
  MIC: 2 µg/mL (≈ 1.38 µM)
[2]; S. aureus NR 10191
  MIC: 1 µg/mL (≈ 0.69 µM)
[2]; S. aureus NR 10192
  MIC: 1 µg/mL (≈ 0.69 µM)
[2]; S. aureus NR 10193
  MIC: 2 µg/mL (≈ 1.38 µM)
[2]; S. aureus NR 10194
  MIC: 1 µg/mL (≈ 0.69 µM)
[2]; S. aureus NR 10198
  MIC: 2 µg/mL (≈ 1.38 µM)
[2]; Staphylococcus aureus strain NR 10129
  MIC: 1 µg/mL (≈ 0.69 µM)
[2]; Staphylococcus aureus strain NR 10186
  MIC: 1 µg/mL (≈ 0.69 µM)
[2]; Staphylococcus aureus strain NR 10187
  MIC: 2 µg/mL (≈ 1.38 µM)
[2]; Staphylococcus aureus strain NR 10188
  MIC: 1 µg/mL (≈ 0.69 µM)
[2]; Staphylococcus aureus strain NR 10189
  MIC: 2 µg/mL (≈ 1.38 µM)
[2]; Staphylococcus aureus strain NR 10191
  MIC: 1 µg/mL (≈ 0.69 µM)
[2]; Staphylococcus aureus strain NR 10192
  MIC: 1 µg/mL (≈ 0.69 µM)
[2]; Staphylococcus aureus strain NR 10193
  MIC: 2 µg/mL (≈ 1.38 µM)
[2]; Staphylococcus aureus strain NR 10194
  MIC: 1 µg/mL (≈ 0.69 µM)
[2]; Staphylococcus aureus strain NR 10198
  MIC: 2 µg/mL (≈ 1.38 µM)
[3]
  MIC: > 32 µg/mL
[3]; Fusobacterium
  MIC: > 32 µg/mL
[4]
  MIC: 0.25 µg/mL (≈ 0.173 µM)
[5]; VPI10463, Expt. 1, fecal extract (human feces 20% w/v in BHI)
  MIC: 1 µg/mL (≈ 0.69 µM)
[5]; VPI10463, Expt. 1, −fecal extract
  MIC: 0.5 µg/mL (≈ 0.345 µM)
[5]; VPI10463, Expt. 2, +fecal extract (human feces 20% w/v in BHI)
  MIC: 0.5 µg/mL (≈ 0.345 µM)
[5]; VPI10463, Expt. 2, −fecal extract
  MIC: 0.5 µg/mL (≈ 0.345 µM)
[6]
  MBC/MIC ratio range: 1-4
[6]; [12]
  MBC: 2 µg/mL (≈ 1.38 µM)
[7]
  susceptibility of Lachnospiraceae and related organisms (in words): susceptible
[7]; Clostridiales bacterium
  MIC: 0.25 µg/mL (≈ 0.173 µM)
[8]
  in vitro activity against Lactobacillus spp. (in words): six strains susceptible and four resistant
[9]; E. coli NR 6, Mueller-Hinton broth
  MIC: >32 µg/mL
[9]; E. coli NR 8, Mueller-Hinton broth
  MIC: >32 µg/mL
[9]; E. coli NR 96, Mueller-Hinton broth
  MIC: >32 µg/mL
[9]; E. coli NR 104, Mueller-Hinton broth
  MIC: >32 µg/mL
[9]; E. coli NR 17626, Mueller-Hinton broth
  MIC: >32 µg/mL
[9]; E. coli NR 17627, Mueller-Hinton broth
  MIC: >32 µg/mL
[9]; E. coli NR 17633, Mueller-Hinton broth
  MIC: >32 µg/mL
[9]; E. coli NR 17647, Mueller-Hinton broth
  MIC: >32 µg/mL
[9]; E. coli NR 17650, Mueller-Hinton broth
  MIC: >32 µg/mL
[9]; E. coli NR 17661, Mueller-Hinton broth
  MIC: >32 µg/mL
[9]; Escherichia coli
  MIC: > 32 µg/mL
[9]; Escherichia coli strain NR 6, Mueller-Hinton broth
  MIC: >32 µg/mL
[9]; Escherichia coli strain NR 8, Mueller-Hinton broth
  MIC: >32 µg/mL
[9]; Escherichia coli strain NR 96, Mueller-Hinton broth
  MIC: >32 µg/mL
[9]; Escherichia coli strain NR 17626, Mueller-Hinton broth
  MIC: >32 µg/mL
[9]; Escherichia coli strain NR 17627, Mueller-Hinton broth
  MIC: >32 µg/mL
[9]; Escherichia coli strain NR 17633, Mueller-Hinton broth
  MIC: >32 µg/mL
[9]; Escherichia coli strain NR 17647, Mueller-Hinton broth
  MIC: >32 µg/mL
[9]; Escherichia coli strain NR 17650, Mueller-Hinton broth
  MIC: >32 µg/mL
[9]; Escherichia coli strain NR 17661, Mueller-Hinton broth
  MIC: >32 µg/mL
[10]; BAA1805, read-out: MIC alone, Test 13, CD strain BAA1805 (BI/NAP1/027)
  MIC: 0.5 µg/mL
[10]; BAA1805, read-out: MIC alone, Test 16, CD strain BAA1805 (BI/NAP1/027)
  MIC: 0.5 µg/mL
[10]; read-out: MIC alone, Test 1, CD strain VPI 10463
  MIC: 2 µg/mL
[10]; read-out: MIC alone, Test 2, CD strain VPI 10463
  MIC: 2 µg/mL
[10]; read-out: MIC alone, Test 5, CD strain NR32889
  MIC: 2 µg/mL
[10]; read-out: MIC alone, Test 6, CD strain NR32890
  MIC: 1 µg/mL
[10]; read-out: MIC alone, Test 7, CD strain NR32885
  MIC: 1 µg/mL
[10]; read-out: MIC alone, Test 9, CD strain NR32885
  MIC: 1 µg/mL
[10]; read-out: MIC alone, Test 11, CD strain NR32885
  MIC: 1 µg/mL
[10]; read-out: MIC alone, Test 18, CD strain NR32888
  MIC: 0.5 µg/mL
[10]; read-out: MIC alone, Test 20, CD strain NR32888
  MIC: 0.5 µg/mL
[10]; Test 1, CD strain VPI 10463
  FIC: 0.25
  MIC combination: 0.5 µg/mL
[10]; Test 2, CD strain VPI 10463
  FIC: 0.25
  MIC combination: 0.5 µg/mL
[10]; Test 5, CD strain NR32889
  FIC: 1
  MIC combination: 2 µg/mL
[10]; Test 6, CD strain NR32890
  FIC: 0.5
  MIC combination: 0.5 µg/mL
[10]; Test 7, CD strain NR32885
  FIC: 0.5
  MIC combination: 0.5 µg/mL
[10]; Test 9, CD strain NR32885
  FIC: 0.25
  MIC combination: 0.25 µg/mL
[10]; Test 11, CD strain NR32885
  FIC: 0.25
  MIC combination: 0.25 µg/mL
[10]; [13]
  FIC: 0.062
  MIC combination: 0.031 µg/mL
[10]; [14]
  FIC: 0.25
  MIC combination: 0.125 µg/mL
[10]; Test 18, CD strain NR32888
  FIC: 0.5
  MIC combination: 0.25 µg/mL
[10]; Test 20, CD strain NR32888
  FIC: 0.5
  MIC combination: 0.25 µg/mL
[11]
  MIC: 0.25 µg/mL (≈ 0.173 µM)
[11]; Clostridium perfringens, MH310
  MIC: 0.5 µg/mL (≈ 0.345 µM)
